# Measured values as given in patent US6372457B1, “Process and materials for production of glucosamine” (Arkion Life Sciences LLC, priority 1997, dated 2002).
# Biological target: T1, glucosamine-6-phosphate synthase (Escherichia coli, UniProt P17169)
# T1 construct: allowed mutagenesis of a 2247 base pair region that included the entire glmS gene; made in house; host or cells: E. coli W3110-derived (DE3) production strains with integrated T7-glmS cassette; crude extract
# Type: biochemical
# Conditions: spectrophotometric assay, FIG. 5
# Experimental: In the spectrophotometric assay, 1 mL reactions containing 50 mM KH2PO4/K2HPO4, 10 nM fructose-6-phosphate, 6 mM L-glutamine, 10 mM KCl, 0.6 mM acetylpyridine adenine dinucleotide (APAD), and 50-60 Units of L-glutamic dehydrogenase (Sigma Type II from bovine liver) were run at room temperature. The activity was followed by monitoring the absorbance at 365 nm after the addition of extract and corrected for the small absorbance increase observed in the absence of extract. The activity was calculated using a molar extinction coefficient for APAD of 9100.
# Using the spectrophotometric assay for glucosamine-6-phosphate synthase as described in Example 2, the effects of glucosamine-6-phosphate and glucosamine on glucosamine-6-phosphate synthase were measured. For determination of product inhibition, assays were run in the presence of various concentrations of added glucosamine-6-phosphate.
# The strains were grown overnight in LB broth containing 100 μg/mL ampicillin and 1 mM IPTC. […]
# Strains 2123-12, 2123-49, 2123-54, 2123-124, 2123-149, and 2123-151, described in the examples above, were grown overnight in LB broth at 37° C. then transferred to fresh LB broth. Cultures were grown to an absorbance at 600 nm of 0.8 to 0.9, then induced for GlcN6P synthase production by the addition of 1 mM IPTG. […]
# T1 sequence (P17169 2-609): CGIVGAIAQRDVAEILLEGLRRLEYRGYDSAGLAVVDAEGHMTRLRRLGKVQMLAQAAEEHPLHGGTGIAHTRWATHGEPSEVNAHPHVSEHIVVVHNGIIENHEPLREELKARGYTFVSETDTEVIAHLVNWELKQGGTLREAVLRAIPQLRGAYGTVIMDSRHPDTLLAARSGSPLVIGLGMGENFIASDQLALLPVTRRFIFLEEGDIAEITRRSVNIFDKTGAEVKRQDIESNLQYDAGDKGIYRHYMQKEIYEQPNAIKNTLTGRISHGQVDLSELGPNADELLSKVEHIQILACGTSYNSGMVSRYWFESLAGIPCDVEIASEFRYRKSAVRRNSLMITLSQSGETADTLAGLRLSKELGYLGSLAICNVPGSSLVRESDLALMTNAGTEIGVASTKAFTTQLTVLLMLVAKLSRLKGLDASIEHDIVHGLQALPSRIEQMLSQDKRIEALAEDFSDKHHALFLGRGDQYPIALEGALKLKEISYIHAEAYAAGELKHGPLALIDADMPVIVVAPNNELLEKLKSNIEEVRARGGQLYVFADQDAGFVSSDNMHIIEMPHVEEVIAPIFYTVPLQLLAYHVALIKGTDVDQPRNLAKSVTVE
row,SMILES,Inhibition of glucosamine-6-phosphate synthase by the added substance
1,N[C@H]1C(O)O[C@H](COP(=O)(O)O)[C@@H](O)[C@@H]1O (some centres unmarked) [glucosamine-6-phosphate],significantly inhibited
2,N[C@H]1C(O)O[C@H](CO)[C@@H](O)[C@@H]1O (some centres unmarked) [glucosamine],slightly inhibited
